Values of other authors as cited in US20230190748A1, “COMPOSITIONS FOR TREATMENT OF AGED DISEASES” (GERO PTE. LTD., priority 2020, published 2023).

Key:
[1] = white to brownish yellow powder
EGFR/ErbB1 = EGFR/ErbB1 (Homo sapiens, UniProt P00533); conditions: class symbols + to ++++ and √; legend not given
HER2/ErbB2 = HER2/ErbB2 (Homo sapiens, UniProt P04626); conditions: class symbols + to ++++ and √; legend not given
HER2/ErbB2, sequence (P04626 23-1255): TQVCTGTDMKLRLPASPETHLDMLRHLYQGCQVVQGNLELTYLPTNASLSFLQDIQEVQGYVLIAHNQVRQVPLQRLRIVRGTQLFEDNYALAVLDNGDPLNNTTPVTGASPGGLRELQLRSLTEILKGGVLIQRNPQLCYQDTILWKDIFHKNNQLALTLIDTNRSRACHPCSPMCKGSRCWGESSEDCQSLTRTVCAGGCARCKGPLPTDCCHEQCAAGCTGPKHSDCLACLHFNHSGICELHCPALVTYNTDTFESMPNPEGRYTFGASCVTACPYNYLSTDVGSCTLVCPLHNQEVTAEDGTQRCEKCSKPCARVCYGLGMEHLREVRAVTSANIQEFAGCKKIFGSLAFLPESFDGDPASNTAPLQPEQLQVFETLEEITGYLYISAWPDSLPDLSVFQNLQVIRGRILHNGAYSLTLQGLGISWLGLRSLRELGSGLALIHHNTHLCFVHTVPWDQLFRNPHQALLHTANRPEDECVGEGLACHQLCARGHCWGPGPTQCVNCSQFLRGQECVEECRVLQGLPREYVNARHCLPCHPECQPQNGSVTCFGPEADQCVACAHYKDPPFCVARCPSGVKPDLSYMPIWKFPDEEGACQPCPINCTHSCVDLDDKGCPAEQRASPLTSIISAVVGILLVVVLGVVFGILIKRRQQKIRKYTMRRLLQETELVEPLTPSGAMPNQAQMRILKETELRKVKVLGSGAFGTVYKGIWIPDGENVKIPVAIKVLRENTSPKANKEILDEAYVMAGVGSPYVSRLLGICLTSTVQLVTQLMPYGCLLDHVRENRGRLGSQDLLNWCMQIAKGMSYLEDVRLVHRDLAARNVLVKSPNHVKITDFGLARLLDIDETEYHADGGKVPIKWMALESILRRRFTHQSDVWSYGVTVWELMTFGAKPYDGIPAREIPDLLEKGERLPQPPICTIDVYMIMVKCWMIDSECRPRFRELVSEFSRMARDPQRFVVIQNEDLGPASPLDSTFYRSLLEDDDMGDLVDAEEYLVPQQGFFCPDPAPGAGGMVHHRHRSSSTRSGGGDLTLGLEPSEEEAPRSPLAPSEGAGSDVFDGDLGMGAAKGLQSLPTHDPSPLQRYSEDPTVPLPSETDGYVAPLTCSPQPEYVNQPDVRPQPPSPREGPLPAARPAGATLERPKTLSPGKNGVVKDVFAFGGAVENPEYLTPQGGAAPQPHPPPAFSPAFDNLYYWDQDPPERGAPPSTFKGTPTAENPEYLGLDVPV

EGFR/ErbB1, sequence (P00533 25-1210): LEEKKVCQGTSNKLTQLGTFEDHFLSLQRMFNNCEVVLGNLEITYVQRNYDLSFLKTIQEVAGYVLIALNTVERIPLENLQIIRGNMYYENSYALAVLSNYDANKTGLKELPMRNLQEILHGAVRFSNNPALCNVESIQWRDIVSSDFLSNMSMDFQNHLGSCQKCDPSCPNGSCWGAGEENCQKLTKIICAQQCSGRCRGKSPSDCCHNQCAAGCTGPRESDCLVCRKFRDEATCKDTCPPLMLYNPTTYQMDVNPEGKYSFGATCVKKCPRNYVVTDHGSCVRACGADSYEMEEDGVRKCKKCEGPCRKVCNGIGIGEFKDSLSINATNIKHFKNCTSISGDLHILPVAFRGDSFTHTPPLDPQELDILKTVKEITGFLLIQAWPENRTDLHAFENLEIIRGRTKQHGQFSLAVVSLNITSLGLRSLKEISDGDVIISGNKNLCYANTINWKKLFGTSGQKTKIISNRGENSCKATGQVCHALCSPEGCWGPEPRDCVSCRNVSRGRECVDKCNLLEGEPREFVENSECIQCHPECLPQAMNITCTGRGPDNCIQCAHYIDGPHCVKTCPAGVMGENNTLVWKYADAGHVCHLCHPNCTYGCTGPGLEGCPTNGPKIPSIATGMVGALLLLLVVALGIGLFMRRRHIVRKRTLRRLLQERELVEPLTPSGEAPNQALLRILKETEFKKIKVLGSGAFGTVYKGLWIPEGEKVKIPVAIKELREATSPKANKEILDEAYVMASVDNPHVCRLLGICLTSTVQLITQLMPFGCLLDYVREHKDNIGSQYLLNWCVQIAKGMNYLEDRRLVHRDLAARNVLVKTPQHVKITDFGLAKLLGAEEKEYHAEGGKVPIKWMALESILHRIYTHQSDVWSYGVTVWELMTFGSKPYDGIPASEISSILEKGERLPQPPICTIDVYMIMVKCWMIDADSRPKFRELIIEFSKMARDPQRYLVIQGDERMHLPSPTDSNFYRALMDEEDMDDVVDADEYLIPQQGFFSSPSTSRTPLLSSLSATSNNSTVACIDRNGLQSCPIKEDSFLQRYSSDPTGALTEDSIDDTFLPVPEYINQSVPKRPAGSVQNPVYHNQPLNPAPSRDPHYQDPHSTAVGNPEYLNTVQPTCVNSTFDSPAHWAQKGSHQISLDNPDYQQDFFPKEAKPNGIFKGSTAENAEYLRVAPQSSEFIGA

Structure (SMILES)	EGFR/ErbB1 (EGFR/ErbB1)	also measured
CN(C)C/C=C/C(=O)Nc1cc2c(Nc3ccc(F)c(Cl)c3)ncnc2cc1O[C@H]1CCOC1.O=C(O)/C=C\C(=O)O.O=C(O)/C=C\C(=O)O [Afatinib (BIBW2992) Dimaleate, 2-butenamide, N-[4-[(3-chloro-4-fluorophenyl)amino] 7-[[(3S)-tetrahydro-3-furanyl]oxy]-6-quinazolinyl]-4-(dimethylamino)-,(2E)-, (2Z)-2-butenedioate (1:2)]		solubility in water [1]: water soluble
Cc1cc(Nc2ncnc3ccc(-c4ccc(CNCCS(C)(=O)=O)o4)cc23)ccc1Oc1ccn2ncnc2c1 [HER2-Inhibitor-1]		HER2/ErbB2 (HER2/ErbB2): √
C=CC(=O)N1CC[C@@H](Oc2nc(Nc3ccc(N4CCC(N5CCN(C)CC5)CC4)cc3)c(C(N)=O)nc2CC)C1 [Naquotinib(ASP8273), Naquotinib]	√	
C=CC(=O)Nc1cccc(Oc2nc(Nc3ccc(N4CCN(C)CC4)cc3)nc3ccsc23)c1 [Olmutinib (HM61713, BI 1482694), Olmutinib]	√	

Second part, led by results:

EGFR/ErbB1 (EGFR/ErbB1)	Structure (SMILES)	also measured
√	O=C(/C=C/c1ccc(O)c(O)c1)c1ccc(O)cc1O [Butein]	
√	Cc1cc(O)c2c(c1)C(=O)c1cccc(O)c1C2=O [Chrysophanic Acid]	
√	C=CC(=O)Nc1cccc(Sc2nc(Nc3ccc(N4CCN(C)CC4)cc3)ncc2Cl)c1 [WZ8040]	
